Reference: patent publication US11040028B2, “Penicinotam derivative, preparation method and use thereof” (OCEAN UNIVERSITY OF CHINA, priority 2017, dated 2021)

What follows are molecules tested on cardiac fibroblast RAT-iCell-C002 (assay: Anti-fibrosis activity test: inhibition of proliferation of cardiac fibroblast RAT-iCell-C002 (CCK-8)). Conditions: Cardiac fibroblast, 48 h, cardiac fibroblast RAT-iCell-C002, CCK-8, 48 hours.
Format: cell-based
In short: (§1)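 48 h compound treatment of fibroblast-type cells seeded at 2×10^4 cells/mL, 37° C, 5% CO2; viability by CCK-8 (2 h, A450). Inhibition rate calculated against blank control, IC50 by curve fitting; pirfenidone served as reference.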

Structure (SMILES)	IC50 [mM]
O=C1c2c(n(Cc3ccc(Cl)cc3)c3cccc(Cl)c3c2=O)-c2cccn21 [Compound 477a, 8-Chloro-4-(4-chlorobenzyl)-9H-pyrrolizino[1,2-b]quinoline-9,10(4H)-dione]	0.05 to 5
O=C1c2c(nc3ccccc3c2OCc2ccc(Cl)cc2F)-c2cccn21 [Compound 602b, 9-((4-chloro-2-fluorobenzyl)oxy)-10H-pyrrolizino[1,2-b]quinolin-10-one]	0.05 to 5
O=C1c2c(n(Cc3ccc(Br)cc3F)c3ccccc3c2=O)-c2cccn21 [Compound 606a, 4-(4-Bromo-2-fluorobenzyl)-9H-pyrrolizino[1,2-b]quinoline-9,10(4H)-dione]	0.05 to 5
O=C1c2c(n(Cc3ccc(F)cc3)c3ccccc3c2=O)-c2cccn21 [Compound 588a, 4-(4-Fluorobenzyl)-9H-pyrrolizino[1,2-b]quinoline-9,10(4H)-dione]	0.05 to 5
O=C1c2c(n(CCO)c3ccccc3c2=O)-c2cccn21 [Compound 11a, 4-(2-Hydroxyethyl)-9H-pyrrolizino[1,2-b]quinoline-9,10(4H)-dione]	0.05 to 5

Each molecule was assayed on BHK-21 cells (assay: Anti-fibrosis activity test: inhibition of BHK-21 cell proliferation (CCK-8)). Conditions: Mesocricetus auratus, BHK-21, 48 h, CCK-8, 48 hours after administration.
Format: cell-based
In short: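 Proliferation of BHK-21 cells is measured by CCK-8 at 450 nm following 48 h compound exposure at several concentrations. Inhibition is expressed relative to blank control and IC50 is computed from it.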

Structure (SMILES)	IC50 [mM]
O=C1c2c(n(Cc3ccc(Cl)cc3)c3cccc(Cl)c3c2=O)-c2cccn21 [Compound 477a, 8-Chloro-4-(4-chlorobenzyl)-9H-pyrrolizino[1,2-b]quinoline-9,10(4H)-dione]	0.05 to 5
O=C1c2c(nc3ccccc3c2OCc2ccc(Cl)cc2F)-c2cccn21 [Compound 602b, 9-((4-chloro-2-fluorobenzyl)oxy)-10H-pyrrolizino[1,2-b]quinolin-10-one]	0.05 to 5
O=C1c2c(n(Cc3ccc(Br)cc3F)c3ccccc3c2=O)-c2cccn21 [Compound 606a, 4-(4-Bromo-2-fluorobenzyl)-9H-pyrrolizino[1,2-b]quinoline-9,10(4H)-dione]	< 0.05
O=C1c2c(n(Cc3ccc(F)cc3)c3ccccc3c2=O)-c2cccn21 [Compound 588a, 4-(4-Fluorobenzyl)-9H-pyrrolizino[1,2-b]quinoline-9,10(4H)-dione]	0.05 to 5
O=C1c2c(n(CCO)c3ccccc3c2=O)-c2cccn21 [Compound 11a, 4-(2-Hydroxyethyl)-9H-pyrrolizino[1,2-b]quinoline-9,10(4H)-dione]	0.05 to 5

The molecules below were run on NF-κB (assay: Immunological activity test: inhibition of NF-κB activity). Conditions: initial concentration of 30 μM; a/b isomers given as first/second symbol; read-out: IC50 (μM), inhibitory activity against NF-κB.
Format: cell-based
In short: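 Compounds were first screened for inhibition of NF-κB activity at 30 μM, with parthenolide as the positive control. IC50 values were then determined for the compounds by further analysis of the assay data.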

Structure (SMILES)	IC50 [µM]
O=C1c2c(n(Cc3ccc(Cl)cc3)c3cccc(Cl)c3c2=O)-c2cccn21 [Compound 477a, 8-Chloro-4-(4-chlorobenzyl)-9H-pyrrolizino[1,2-b]quinoline-9,10(4H)-dione]	10 to 50
O=C1c2c(nc3ccccc3c2OCc2ccc(Cl)cc2F)-c2cccn21 [Compound 602b, 9-((4-chloro-2-fluorobenzyl)oxy)-10H-pyrrolizino[1,2-b]quinolin-10-one]	1 to 10
O=C1c2c(n(Cc3ccc(Br)cc3F)c3ccccc3c2=O)-c2cccn21 [Compound 606a, 4-(4-Bromo-2-fluorobenzyl)-9H-pyrrolizino[1,2-b]quinoline-9,10(4H)-dione]	0.1 to 1
O=C1c2c(n(Cc3ccc(F)cc3)c3ccccc3c2=O)-c2cccn21 [Compound 588a, 4-(4-Fluorobenzyl)-9H-pyrrolizino[1,2-b]quinoline-9,10(4H)-dione]	1 to 10
O=C1c2c(n(CCO)c3ccccc3c2=O)-c2cccn21 [Compound 11a, 4-(2-Hydroxyethyl)-9H-pyrrolizino[1,2-b]quinoline-9,10(4H)-dione]	1 to 10

The molecules below were run on human fibrosarcoma cells HT-1080 (assay: Anti-fibrosis activity test: inhibition of proliferation of human fibrosarcoma cells HT-1080 (CCK-8)). Conditions: Homo sapiens, HT-1080, 48 h, human fibrosarcoma cells HT-1080, CCK-8, 48 hours.
Format: cell-based
In short: as §1

Structure (SMILES)	IC50 [mM]
O=C1c2c(n(Cc3ccc(Cl)cc3)c3cccc(Cl)c3c2=O)-c2cccn21 [Compound 477a, 8-Chloro-4-(4-chlorobenzyl)-9H-pyrrolizino[1,2-b]quinoline-9,10(4H)-dione]	0.05 to 5
O=C1c2c(nc3ccccc3c2OCc2ccc(Cl)cc2F)-c2cccn21 [Compound 602b, 9-((4-chloro-2-fluorobenzyl)oxy)-10H-pyrrolizino[1,2-b]quinolin-10-one]	0.05 to 5
O=C1c2c(n(Cc3ccc(Br)cc3F)c3ccccc3c2=O)-c2cccn21 [Compound 606a, 4-(4-Bromo-2-fluorobenzyl)-9H-pyrrolizino[1,2-b]quinoline-9,10(4H)-dione]	< 0.05
O=C1c2c(n(Cc3ccc(F)cc3)c3ccccc3c2=O)-c2cccn21 [Compound 588a, 4-(4-Fluorobenzyl)-9H-pyrrolizino[1,2-b]quinoline-9,10(4H)-dione]	0.05 to 5
O=C1c2c(n(CCO)c3ccccc3c2=O)-c2cccn21 [Compound 11a, 4-(2-Hydroxyethyl)-9H-pyrrolizino[1,2-b]quinoline-9,10(4H)-dione]	0.05 to 5

These molecules were tested on human dermal fibroblasts CCC-ESF-1 (assay: Anti-fibrosis activity test: inhibition of proliferation of human dermal fibroblasts CCC-ESF-1 (CCK-8)). Conditions: Fibroblast; human dermal fibroblasts CCC-ESF-1, CCK-8, 48 hours.
Format: cell-based
In short: as §1

Structure (SMILES)	IC50 [mM]
O=C1c2c(n(Cc3ccc(Cl)cc3)c3cccc(Cl)c3c2=O)-c2cccn21 [Compound 477a, 8-Chloro-4-(4-chlorobenzyl)-9H-pyrrolizino[1,2-b]quinoline-9,10(4H)-dione]	0.05 to 5
O=C1c2c(nc3ccccc3c2OCc2ccc(Cl)cc2F)-c2cccn21 [Compound 602b, 9-((4-chloro-2-fluorobenzyl)oxy)-10H-pyrrolizino[1,2-b]quinolin-10-one]	0.05 to 5
O=C1c2c(n(Cc3ccc(Br)cc3F)c3ccccc3c2=O)-c2cccn21 [Compound 606a, 4-(4-Bromo-2-fluorobenzyl)-9H-pyrrolizino[1,2-b]quinoline-9,10(4H)-dione]	0.05 to 5
O=C1c2c(n(Cc3ccc(F)cc3)c3ccccc3c2=O)-c2cccn21 [Compound 588a, 4-(4-Fluorobenzyl)-9H-pyrrolizino[1,2-b]quinoline-9,10(4H)-dione]	0.05 to 5
O=C1c2c(n(CCO)c3ccccc3c2=O)-c2cccn21 [Compound 11a, 4-(2-Hydroxyethyl)-9H-pyrrolizino[1,2-b]quinoline-9,10(4H)-dione]	0.05 to 5

These molecules were tested on human hepatic stellate cells LX-2 (assay: Anti-fibrosis activity test: inhibition of proliferation of human hepatic stellate cells LX-2 (CCK-8)). Conditions: Homo sapiens, 48 h, human hepatic stellate cells LX-2, CCK-8, 48 hours.
Format: cell-based
In short: as §1

Structure (SMILES)	IC50 [mM]
O=C1c2c(n(Cc3ccc(Cl)cc3)c3cccc(Cl)c3c2=O)-c2cccn21 [Compound 477a, 8-Chloro-4-(4-chlorobenzyl)-9H-pyrrolizino[1,2-b]quinoline-9,10(4H)-dione]	0.05 to 5
O=C1c2c(nc3ccccc3c2OCc2ccc(Cl)cc2F)-c2cccn21 [Compound 602b, 9-((4-chloro-2-fluorobenzyl)oxy)-10H-pyrrolizino[1,2-b]quinolin-10-one]	0.05 to 5
O=C1c2c(n(Cc3ccc(Br)cc3F)c3ccccc3c2=O)-c2cccn21 [Compound 606a, 4-(4-Bromo-2-fluorobenzyl)-9H-pyrrolizino[1,2-b]quinoline-9,10(4H)-dione]	0.05 to 5
O=C1c2c(n(Cc3ccc(F)cc3)c3ccccc3c2=O)-c2cccn21 [Compound 588a, 4-(4-Fluorobenzyl)-9H-pyrrolizino[1,2-b]quinoline-9,10(4H)-dione]	0.05 to 5
O=C1c2c(n(CCO)c3ccccc3c2=O)-c2cccn21 [Compound 11a, 4-(2-Hydroxyethyl)-9H-pyrrolizino[1,2-b]quinoline-9,10(4H)-dione]	0.05 to 5

These molecules were tested on human embryonic lung fibroblast IMR-90 (assay: Anti-fibrosis activity test: inhibition of proliferation of human embryonic lung fibroblast IMR-90 (CCK-8)). Conditions: human embryonic lung fibroblast IMR-90, CCK-8, 48 hours.
Format: cell-based
In short: as §1

Structure (SMILES)	IC50 [mM]
O=C1c2c(n(Cc3ccc(Cl)cc3)c3cccc(Cl)c3c2=O)-c2cccn21 [Compound 477a, 8-Chloro-4-(4-chlorobenzyl)-9H-pyrrolizino[1,2-b]quinoline-9,10(4H)-dione]	0.05 to 5
O=C1c2c(nc3ccccc3c2OCc2ccc(Cl)cc2F)-c2cccn21 [Compound 602b, 9-((4-chloro-2-fluorobenzyl)oxy)-10H-pyrrolizino[1,2-b]quinolin-10-one]	0.05 to 5
O=C1c2c(n(Cc3ccc(Br)cc3F)c3ccccc3c2=O)-c2cccn21 [Compound 606a, 4-(4-Bromo-2-fluorobenzyl)-9H-pyrrolizino[1,2-b]quinoline-9,10(4H)-dione]	0.05 to 5
O=C1c2c(n(Cc3ccc(F)cc3)c3ccccc3c2=O)-c2cccn21 [Compound 588a, 4-(4-Fluorobenzyl)-9H-pyrrolizino[1,2-b]quinoline-9,10(4H)-dione]	0.05 to 5
O=C1c2c(n(CCO)c3ccccc3c2=O)-c2cccn21 [Compound 11a, 4-(2-Hydroxyethyl)-9H-pyrrolizino[1,2-b]quinoline-9,10(4H)-dione]	0.05 to 5

Each molecule was assayed on human lung fibroblasts HFL1 (assay: Anti-fibrosis activity test: inhibition of proliferation of human lung fibroblasts HFL1 (CCK-8)). Conditions: Homo sapiens, HFL1, 48 h, human lung fibroblasts HFL1, CCK-8, 48 hours.
Format: cell-based
In short: as §1

Structure (SMILES)	IC50 [mM]
O=C1c2c(n(Cc3ccc(Cl)cc3)c3cccc(Cl)c3c2=O)-c2cccn21 [Compound 477a, 8-Chloro-4-(4-chlorobenzyl)-9H-pyrrolizino[1,2-b]quinoline-9,10(4H)-dione]	0.05 to 5
O=C1c2c(nc3ccccc3c2OCc2ccc(Cl)cc2F)-c2cccn21 [Compound 602b, 9-((4-chloro-2-fluorobenzyl)oxy)-10H-pyrrolizino[1,2-b]quinolin-10-one]	0.05 to 5
O=C1c2c(n(Cc3ccc(Br)cc3F)c3ccccc3c2=O)-c2cccn21 [Compound 606a, 4-(4-Bromo-2-fluorobenzyl)-9H-pyrrolizino[1,2-b]quinoline-9,10(4H)-dione]	0.05 to 5
O=C1c2c(n(Cc3ccc(F)cc3)c3ccccc3c2=O)-c2cccn21 [Compound 588a, 4-(4-Fluorobenzyl)-9H-pyrrolizino[1,2-b]quinoline-9,10(4H)-dione]	0.05 to 5
O=C1c2c(n(CCO)c3ccccc3c2=O)-c2cccn21 [Compound 11a, 4-(2-Hydroxyethyl)-9H-pyrrolizino[1,2-b]quinoline-9,10(4H)-dione]	0.05 to 5

What follows are molecules tested on mouse macrophages (RAW264.7) (assay: Lipopolysaccharide-induced NO secretion in macrophages (Griess)). Conditions: Mus musculus, RAW264.7, 24 h, RAW264.7, LPS 1 μg/ml, a/b isomers given as first/second symbol, read-out: IC50 (μM), inhibition of lipopolysaccharide-induced NO secretion in macrophages.
Format: cell-based
In short: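 RAW264.7 macrophages in DMEM with 10% FBS received test samples at several concentrations and were stimulated with 1 μg/ml LPS for 24 h. NO in the supernatant was measured with the Griess reagent at 548 nm, […].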

Structure (SMILES)	IC50 [µM]
O=C1c2c(n(Cc3ccc(Cl)cc3)c3cccc(Cl)c3c2=O)-c2cccn21 [Compound 477a, 8-Chloro-4-(4-chlorobenzyl)-9H-pyrrolizino[1,2-b]quinoline-9,10(4H)-dione]	1 to 10
O=C1c2c(nc3ccccc3c2OCc2ccc(Cl)cc2F)-c2cccn21 [Compound 602b, 9-((4-chloro-2-fluorobenzyl)oxy)-10H-pyrrolizino[1,2-b]quinolin-10-one]	1 to 10
O=C1c2c(n(Cc3ccc(Br)cc3F)c3ccccc3c2=O)-c2cccn21 [Compound 606a, 4-(4-Bromo-2-fluorobenzyl)-9H-pyrrolizino[1,2-b]quinoline-9,10(4H)-dione]	1 to 10
O=C1c2c(n(Cc3ccc(F)cc3)c3ccccc3c2=O)-c2cccn21 [Compound 588a, 4-(4-Fluorobenzyl)-9H-pyrrolizino[1,2-b]quinoline-9,10(4H)-dione]	1 to 10
O=C1c2c(n(CCO)c3ccccc3c2=O)-c2cccn21 [Compound 11a, 4-(2-Hydroxyethyl)-9H-pyrrolizino[1,2-b]quinoline-9,10(4H)-dione]	1 to 10
